Patent US4501892A, “Pyridyl benzenediols” (The Upjohn Company, priority 1982, dated 1985)

Biological target: T1, TXA2 synthetase (Homo sapiens, UniProt P24557)
T1 construct: human platelet microsomes (HPM); from tissue; host or cells: human platelet microsomes
T1 sequence (P24557 1-533): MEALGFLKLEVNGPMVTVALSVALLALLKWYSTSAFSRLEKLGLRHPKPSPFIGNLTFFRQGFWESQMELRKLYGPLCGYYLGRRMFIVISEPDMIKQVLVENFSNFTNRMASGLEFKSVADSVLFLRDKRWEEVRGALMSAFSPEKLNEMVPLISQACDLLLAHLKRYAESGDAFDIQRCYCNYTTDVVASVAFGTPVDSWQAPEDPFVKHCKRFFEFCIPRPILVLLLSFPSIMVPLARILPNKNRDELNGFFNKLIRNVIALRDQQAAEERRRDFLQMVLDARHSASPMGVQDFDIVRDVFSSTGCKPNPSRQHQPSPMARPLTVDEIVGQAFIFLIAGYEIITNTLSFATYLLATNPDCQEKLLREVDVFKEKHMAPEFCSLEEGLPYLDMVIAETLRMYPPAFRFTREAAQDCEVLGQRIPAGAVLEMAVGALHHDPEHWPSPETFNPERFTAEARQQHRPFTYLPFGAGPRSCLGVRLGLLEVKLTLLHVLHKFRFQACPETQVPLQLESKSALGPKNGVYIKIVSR
Assay: TXA2 inhibition test: PGH2 mixed with human platelet microsomes (HPM), TXA2 measured by response of superfused rabbit aortic strips
Format: biochemical
Conditions: rabbit aorta response; for effectiveness in inhibiting TXA2 formation (in words): PGH2 + human platelet microsomes
Experimental: The compounds of the present invention were tested for TXA2 inhibition as follows:
Rabbit aortic strips were superfused in series with Krebs solution. Thromboxane A2 (TXA2) was generated by mixing prostaglandin H2 (PGH2) with human platelet microsomes (HPM).
Potential inhibitors were tested by comparing the response of the rabbit aorta to the amount of TXA2 produced by mixing PGH2 and HPM without the test compound in the reaction medium and then the amount of TXA2 produced when the test compound was added to the HPM 5 minutes before the HPM was mixed with PGH2. […] For a discussion of TXA2 synthetase inhibition testing see, e.g., R. Gorman, supra.

| Molecule | effectiveness in inhibiting TXA2 formation (in words) | IC50 (test compound added to HPM 5 minutes before mixing with PGH2, read-out: approximate ED50 (inhibition of TXA2 formation) (converted)) [nM] |
| --- | --- | --- |
| 2,3-Dihydro-7-(and 6-)(3-pyridinylmethyl)-1,4-benzodioxin-2-carboxylic acid, sodium salt | most effective | – |
| COC(=O)C1Oc2ccc(Cc3cccnc3)cc2O1 (racemic) [Example 1, dl-4-(3-Pyridinylmethyl)-1,2-benzenediol, methyl glyoxylate acetal] | most effective | ~369 |
